The values that follow come from a melting point compilation (Tetko et al.; mined from patent text by program, amines drawn as free bases though some values may be those of a salt).

By melting point is commonly meant the temperature of the solid-liquid transition.

Each structure is given as a SMILES string.

In turn, `CCOC(=O)c1ncn2c1CN=C(c1ccccc1F)c1cc(Cl)ccc1-2` showed a melting point of 195 to 196 °C.

The compound `CCOC(=O)c1c(Cl)c2cccnc2n(Cc2ccccc2)c1=O` displayed a melting point of 109 °C. The result for `CCOC(=O)c1cn2c(C)csc2n1` reads 117 to 119 °C.

As for `Cc1ccccc1C(Oc1cc(OCc2ccc3c(c2)OCO3)ccc1C#N)c1nnn[nH]1` (racemic), the melting point was in the range of 106 to 109 °C. To `CC#CCOc1ccc(S(=O)(=O)C(C(=O)NO)C2CCN(C(=O)c3ccccc3)CC2)cc1` (stereo not drawn) belongs 224 °C; to `O=C1C(=O)c2ccccc2C2=C1SCC1(CCN(CC(O)COc3ccc(Cl)cc3)CC1)O2` (stereo not drawn), 138 to 140 °C; to `CCCCCCCCCCCCCCCCNc1ccc(C(=O)O)cc1`, 104 to 107 °C. The result for `CC1Cc2c(c(Br)cc(F)c2-n2c(=O)cc(C(F)(F)F)n(C)c2=O)O1` (stereo not drawn) reads 66 to 75.5 °C; that for `Cc1c(C#N)sc2nc(-c3ccncc3)nc(N3CCOCC3)c12`, over 250 °C; that for `COc1ccccc1NC(=O)NCc1cccc2c1C(=O)N(C1CCC(=O)NC1=O)C2=O` (stereo not drawn), 214 to 216 °C. For `Cc1ccc(S(=O)(=O)NN=CC(=O)Cl)cc1`, the melting point is 100 to 110 °C. In turn, `CC(C)(CONCc1ccccc1Cl)C(=O)O` displayed a melting point of 78 to 80 °C. The result for `CCc1cn2ccccc2c1S(=O)(=O)c1ccc(O)c(C)c1` reads 214 °C.

`O=C1Cc2cc(NC(=O)C(=O)N3CCC(CCc4ccccc4)CC3)ccc2N1` had a melting point of 236 to 240 °C. The result for `COCCCCCCCCCCCC(N)=O` reads 83.9 to 85.6 °C; that for `CCC(CC)C(NS(=O)(=O)c1ccc(Cl)cc1)c1ccnn1-c1ccccc1` (stereo not drawn), 135 to 136 °C.

The compound `Nc1nnc(-c2cc(F)c(F)c(F)c2O)s1` had a melting point of 309 °C.

In the case of `N#Cc1ccc2ccc3ccccc3c(=O)c2c1`, the melting point fell in the range of 176 to 177 °C. Consider `CON(O)C(=O)c1ccccc1C(F)(F)F`, for which the melting point fell in the range of 101 to 103 °C. In turn, `CCOc1ccc(-c2nc(O)c(-c3ccccc3)s2)cc1` gave a melting point of 214 to 216 °C. The compound `Cc1cc(=O)n(-c2cc(N)c(Cl)cc2F)c(=O)n1C` came in with a melting point of over 220 °C. The result for `O=C(CC(=O)C(CF)CF)c1ccc(OCc2ccccc2)cc1` reads 184 to 188 °C; that for `COC(=O)c1c(C(F)F)nc(C(F)(F)F)c(C(=O)OC)c1O`, 83 to 84.5 °C. To `Cc1ccc(C2=NNC(=O)CC2)cc1O` belongs 216 to 218 °C; to `CN1C(=O)CC(c2ccccc2)C1C(O)c1ccc(C(=O)Nc2ccccc2)s1` (stereo not drawn), 223 to 227 °C. As for `CCOc1ccn([C@H]2CS[C@@H](CO)O2)c(=O)n1` (relative stereo), the melting point was in the range of 117 to 118 °C. For `CC(C)C[C@H](OC(=O)NC1CCCCC1)C(=O)OCc1ccccc1`, the melting point fell in the range of 89 to 90 °C. With `CCOC(=O)COc1cccc(-c2nnc(Nc3cccc(Br)c3)s2)c1`, the melting point came out at 175 °C. As to `COC(=O)c1scc(-c2ccccc2)c1-c1ccc(S(C)=O)c(F)c1` (stereo not drawn), the melting point was 164 °C.

Consider `COc1cc(C2=NN(c3ccccc3)C(=O)C2)cc([N+](=O)[O-])c1OC`, for which the melting point was in the range of 190 to 192 °C. The result for `COC(=O)C(=CNc1ccc(F)c(F)c1OCC(C)OS(=O)(=O)c1ccc(C)cc1)C(=O)OC` (stereo not drawn) reads 89 to 90 °C; that for `CN1C(=O)CON(C(=O)OCc2ccccc2)C1c1ccccc1` (stereo not drawn), 82 to 83 °C; that for `O=CC(=Cc1ccccc1F)C(C=O)=Cc1ccccc1F`, 141 to 142 °C. To `Cc1cc(C)c(N2CCCc3c2nn(C)c3N)c(Cl)c1` belongs 234 to 236 °C. `CCOC(=O)C(C#N)=Cc1cc([N+](=O)[O-])ccc1Cl` returned a melting point of 83 to 85 °C. To `COc1cc(C(=O)N2Cc3ccc(C(=O)C(Cl)(Cl)Cl)n3Cc3ccccc32)ccc1-c1ccccc1C` belongs 221 to 222 °C; to `Nc1noc2cc3c(cc12)C1(CO3)C(=O)N(Cc2ccccc2C(F)(F)F)c2ccccc21` (stereo not drawn), 262 to 264 °C; to `O=c1[nH]c(N2CCN(CCCCN3CCCCC3)CC2)cc2ccc(Br)cc12`, 211 to 212 °C. The result for `O=[N+]([O-])c1nccn1CC(O)CN1CC1` (stereo not drawn) reads 118 to 120 °C; that for `Nc1ccc(C(=O)C(=O)c2ccc(N)cc2)cc1`, 207 °C. To `O=C(O)C(Cc1ccccc1)C(O)CCCCCOCc1ccccc1` (stereo not drawn) belongs 66 to 67 °C; to `CC(=O)N[C@H]1CCN(C(=O)c2ccc(-c3[nH]nc4c3C(=O)c3c(NC(=O)NN5CCOCC5)cccc3-4)s2)C1`, 264 to 265 °C.

In turn, `S=C1NCC(Cn2cncn2)(c2ccc(Cl)cc2Cl)O1` (stereo not drawn) came in with a melting point of 232 to 235 °C. To `CC(=O)c1c(-c2ccc(O)c3ccccc23)oc2ccccc12` belongs 212 to 216 °C; to `CC(C)n1nc(-c2cc(-c3ccn[nH]3)cnc2-c2ccccc2)ccc1=O`, 212 to 213 °C. The compound `Cn1c(C(F)(F)F)cc(=O)n(-c2cc(OCC(C)(C)C)c(Cl)cc2F)c1=O` came in with a melting point of 122 to 124 °C. The result for `O=C(N1CCc2ccc(S(=O)(=O)Cl)cc2C1)C(F)(F)F` reads 104 to 105 °C; that for `O=S(=O)(Cc1ccccc1Cl)c1nnc(C(F)(F)F)s1`, 103 °C; that for `O=C(O)c1ccc2c(c1)Sc1ccccc1N=C2N1CCOCC1`, 267 to 269 °C. To `CNC(=S)NCC1=C(n2ccccc2=O)c2cc([N+](=O)[O-])ccc2OC1(C)C` belongs 225 °C; to `COc1ccc2c(c1)C(C(=O)N(Cc1ccc(-n3ccnc3)cc1)c1ccc(C(C)C)cc1)CCC2` (stereo not drawn), 111 °C; to `CSc1nc2sccc2c2nnc(SCc3ccccc3)n12`, 209 to 211 °C.

`Nc1ccc(Oc2ccc(Oc3ccc(Oc4ccc(Oc5ccc(N)cc5)cc4)cc3)cc2)cc1` displayed a melting point of 170 °C. The result for `O=C1OCc2cccc(CBr)c21` reads 128 to 131 °C; that for `O=C(/C=C/c1ccc2cc[nH]c2c1)CC(=O)/C=C/c1ccc(OCc2ccccn2)cc1O`, 188 to 190 °C. The result for `O=C(Nc1ccc(C(F)(F)F)cc1)OC1CCCNC1` (stereo not drawn) reads 150 to 151 °C; that for `Cc1c(C#N)c(-c2ccc(C#N)cc2)c(C)n1Cc1ccc(Cl)c(COC(=O)CCC(=O)O)c1`, 149 to 151 °C; that for `O=C(C(=O)c1ccc(C#Cc2ccccc2)cc1)c1ccc(C#Cc2ccccc2)cc1`, 168 to 170 °C. To `CC(=O)C(=Cc1ccc(Br)s1)C(C)=O` belongs 70 to 74 °C; to `Nc1cccc(C(=O)NCC23CC4CC(CC(C4)C2)C3)c1Cl`, 154 °C; to `Cc1c(C)c(N2Cc3cc(Cl)c(Cl)cc3C2)c(C)c2c1OC(C)(C)C2c1ccc(F)cc1` (stereo not drawn), 233 to 238 °C. `CCCOc1cc2c(cc1/C=C/c1ccc(C(=O)OCC)cc1)C(C)(C)CCC2(C)C`: the melting point was in the range of 97 to 100 °C.

Consider `COc1cc(N)c(Cl)cc1C(=O)NCC1CCN(CCCCCNC(=O)c2ccc(C)cc2)CC1`, for which the melting point was in the range of 142 to 146 °C. To `Cc1cccc(C2=CCN(CCCCCC(=O)N3Cc4ccccc4C3)CC2)c1C#N` belongs 71 °C; to `Cc1cccc(Nc2cc(Nc3cccc(OCC(=O)N(CCO)CCO)c3)ncn2)c1`, 112 to 113 °C.

Consider `COc1ccccc1Oc1cccc2c1OC(=O)C2`, for which the melting point was in the range of 171 to 172 °C. The result for `CC(C)(C)OC(=O)NC(Cc1ccccc1)C(O)CNCC(O)C(Cc1ccc(OCc2ccccc2)cc1)NC(=O)OCc1ccccc1` (stereo not drawn) reads 154 to 156 °C. On to `CC(C)(S)CN1CCN(CCOCCO)CC1`, for which the melting point is 38 °C. The result for `CC(=O)N1Cc2cnc(C)n2-c2ccc(Cl)cc2C1c1ccccc1F` (stereo not drawn) reads 185 to 186 °C; that for `O=C1NC(=O)C(=Cc2ccc(OCCc3ccccc3)cc2)S1`, 185 to 187 °C. To `CCn1c(=S)c2[nH]c(C(C)C)nc2n(CC)c1=O` belongs 168 to 170 °C; to `CC12CCC(O)CC1CCC1C2CCC2(C)C(C=NNC(N)=O)CCC12O` (stereo not drawn), 222 to 226 °C; to `O=C(Nc1c[nH]nc1C(=O)NCCSc1ccccn1)c1ccccn1`, 162 to 163 °C. The result for `CC1(N)CN=CC=C1N` (stereo not drawn) reads 163 to 165 °C; that for `COC(=O)c1ccc(-c2ccc(-c3ccc4c(c3)C(C)(C)CCC4(C)C)n2C)cc1`, 104 to 105 °C. `O=C(CCc1ccccc1)N[C@H](Cc1ccc(C(F)(F)F)o1)[C@@H](O)c1ccc(F)cc1` (racemic) gave a melting point of 91 to 92 °C. The result for `CC(=O)Nc1ccc(Nc2c([N+](=O)[O-])cc(C(=O)O)cc2S(=O)(=O)Nc2ccccc2NC(C)=O)cc1` reads 252 to 253 °C; that for `CN1CCN(C(=O)OC(C)(C)C)CC1C(N)=O` (stereo not drawn), 137 to 138 °C; that for `COc1cc2nc(-c3cc(C)c(O)c(C)c3)[nH]c(=O)c2cc1OC`, over 300 °C. `C=C1N(CC)C(=O)OC12CCN(CCCN1c3ccccc3Sc3ccccc31)CC2`: the melting point was 122 to 123 °C. With `CC(=O)c1cccc(S(=O)(=O)C[N+](=O)[O-])c1`, the melting point was 99 to 100 °C.

Compound `CCCCC(C=O)(CC)CS(=O)(=O)c1ccccc1C(=O)c1ccccc1` (stereo not drawn) displayed a melting point of 135 to 136 °C. Compound `COc1ccc(Nc2ncccc2NS(=O)(=O)c2ccc(O)cc2)cc1` displayed a melting point of 214 to 216 °C. To `CN(C)C=C1CCc2ccn(C)c2C1=O` belongs 49 to 51 °C; to `O=c1[nH]ncc(NCCN2CCN(c3cccc4c3OCCO4)CC2)c1Cl`, 217 to 219 °C; to `O=C1CCC(C(=O)c2ccc(Cl)cc2)N1` (stereo not drawn), 174 °C. The result for `COC(=O)CC1(CC(=O)N2CCN(C(=O)CC3=C(C(=O)OC)[C@H](c4c(Cl)cccc4Cl)C(C(=O)OC)=C(C[S@](=O)c4ccccc4)N3)CC2)CCCC1` reads 100 to 104 °C.

The compound `CN(C)CCN1C(=O)C(NC(=O)CCc2ccc(Cl)cc2Cl)N=C(c2ccccc2)c2ccccc21` (stereo not drawn) displayed a melting point of 199 to 201 °C.
